Results reported in patent publication US20060189551A1 (priority 2004, published 2006).

Key:
[1] = system: FKBP12-aspartokinase interaction; conditions: 1 g of L-threonine/liter in culture medium (YNB+Thr)
Protocol: (§1) Transformants from yeast two-hybrid host strain PJ69-4A coexpressing Ga14 DNA-binding domain (BD) fusion proteins from plasmid pGBT9-Fpr1 (BD-Fpr1), pGBT9-AK (BD-AK), or pGBT9-AK(E282D) (BD-AD^E282D) and Ga14 activation domain (AD) fusion proteins from plasmids pGAD424-AK (AD-AK) or pGAD424-AK(E282D) (AD-AK^E212D) were grown in SD medium supplemented with uracil, adenine, methionine, and histidine (YNB) or in the same medium plus 1 g of L-threonine/liter (YNB+Thr) or 10 μg of FK506/mL (YNB+FK506), and induction of the lacZ reporter gene was quantified by assaying beta-galactosidase activity. PJ69-4A cotransformed with vectors pGBT9 (BD) and pGAD424 (AD) was assayed as a control.
(§2) Yeast two-hybrid host strain PJ69-4A was cotransformed with plasmids expressing the Ga14 DNA binding-domain (BD) and Ga14 activation domain (AD) fusion proteins. The transformants were grown in Siluid SD medium supplemented with adenine, uracil, methionine, and histidine or in the same medium with the 1 g of L-threonine/liter or with 10 mg of FK506/liter, and induction of the lacZ reporter gene was measured as beta-galactosidase activity as disclosed in Cardenas et al., EMBO J., 14, 5892-5907. […]

aspartokinase [2] = biological target: T1, aspartokinase (Saccharomyces cerevisiae, UniProt P10869)
T1 sequence (P10869 1-527): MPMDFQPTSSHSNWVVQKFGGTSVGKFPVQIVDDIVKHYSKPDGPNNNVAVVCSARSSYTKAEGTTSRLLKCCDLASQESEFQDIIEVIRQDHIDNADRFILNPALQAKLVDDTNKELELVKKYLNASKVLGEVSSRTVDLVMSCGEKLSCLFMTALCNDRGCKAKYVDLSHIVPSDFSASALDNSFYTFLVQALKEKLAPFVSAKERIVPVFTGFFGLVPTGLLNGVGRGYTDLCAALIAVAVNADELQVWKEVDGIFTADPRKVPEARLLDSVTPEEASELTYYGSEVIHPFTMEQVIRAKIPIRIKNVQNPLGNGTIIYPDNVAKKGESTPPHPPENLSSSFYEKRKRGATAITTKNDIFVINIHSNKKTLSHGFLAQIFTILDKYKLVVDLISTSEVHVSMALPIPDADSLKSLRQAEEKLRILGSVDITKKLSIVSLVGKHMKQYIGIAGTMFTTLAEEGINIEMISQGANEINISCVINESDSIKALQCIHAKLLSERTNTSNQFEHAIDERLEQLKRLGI
Protocol: (§3) Aspartokinase (AK) activity in partially purified extracts obtained from the strains described in FIG. 8A was assayed in the presence or absence of threonine (1 or 5 mM).
(§4) AK activity was measured with an enzymatic assay that couples ADP formation with NADH depletion, using pyruvate kinase/lactate dehydrogenase system.
(§5) Aspartokinase activity was assayed in the presence and absence of threonine from wild-type and fpr1, hom6 or HOM3-R7 feedback-resistant mutant cells.

aspartokinase [3] = biological target: aspartokinase (Saccharomyces cerevisiae, UniProt P10869, E282D); conditions: 5 mM threonine
Protocol: as §3, §4, §5

[4] = biological target: FKBP12-aspartokinase interaction (Saccharomyces cerevisiae, UniProt P10869); conditions: 30 mM L-threonine added to binding reaction
Protocol: (§6) FKBP12-aspartokinase (AK) and AK-AK interaction by in vitro affinity chromatography. Crude protein extracts obtained from a wild-type strain (BY4741) or from a strain expressing the HOM3-R7 mutant allele (MAY315) were incubated with His6-tagged yeast FKPB12 coupled to agarose beads in the presence or absence of 30 mM L-threonine. Bound proteins were eluted and analyzed by Western blotting with antibodies against yeast aspartokinase. Binding reactions wit agarose beads alone were included as controls.

[5] = biological target: FKBP12-aspartokinase interaction (Saccharomyces cerevisiae, UniProt P10869, E282D); conditions: 30 mM L-threonine added to binding reaction
Protocol: as §6

[6] = biological target: FKBP12-aspartokinase interaction (Saccharomyces cerevisiae, UniProt P20081)
Chain of FKBP12-aspartokinase interaction (Saccharomyces cerevisiae, UniProt P20081) (P20081 2-114): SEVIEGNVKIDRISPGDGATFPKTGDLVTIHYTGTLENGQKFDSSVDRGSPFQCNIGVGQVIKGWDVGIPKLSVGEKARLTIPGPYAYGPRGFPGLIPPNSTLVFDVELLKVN
Protocol: as §1, §2

Chain of aspartokinase (Saccharomyces cerevisiae, UniProt P10869, E282D) (P10869 whole entry E282D): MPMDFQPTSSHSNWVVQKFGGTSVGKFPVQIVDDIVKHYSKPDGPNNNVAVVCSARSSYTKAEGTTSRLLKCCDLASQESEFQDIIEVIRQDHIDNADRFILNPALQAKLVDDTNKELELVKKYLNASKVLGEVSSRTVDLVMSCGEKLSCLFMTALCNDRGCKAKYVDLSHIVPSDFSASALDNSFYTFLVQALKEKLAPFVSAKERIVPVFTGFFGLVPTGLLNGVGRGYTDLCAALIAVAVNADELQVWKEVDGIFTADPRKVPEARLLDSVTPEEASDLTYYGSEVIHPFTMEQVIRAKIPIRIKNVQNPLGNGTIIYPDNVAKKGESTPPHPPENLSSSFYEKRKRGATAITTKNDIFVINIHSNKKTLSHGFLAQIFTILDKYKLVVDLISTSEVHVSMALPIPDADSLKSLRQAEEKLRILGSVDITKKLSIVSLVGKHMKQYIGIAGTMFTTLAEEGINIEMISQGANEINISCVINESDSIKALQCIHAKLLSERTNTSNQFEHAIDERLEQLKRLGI
Chain of FKBP12-aspartokinase interaction (Saccharomyces cerevisiae, UniProt P10869) (P20081 2-114, one chain of several): as the sequence (P20081 2-114) above
Chain of FKBP12-aspartokinase interaction (Saccharomyces cerevisiae, UniProt P10869, E282D) (P20081 2-114): as above
Chain of FKBP12-aspartokinase interaction (Saccharomyces cerevisiae, UniProt P10869, E282D) (P10869 whole entry E282D): as the sequence (P10869 whole entry E282D) above

SMILES	FKBP12-AK and FKBP12-AK^E282D binding [1]	aspartokinase activity from wild-type and fpr1Δ strains (aspartokinase [2]; 1 mM threonine)	aspartokinase activity (feedback inhibition) (aspartokinase [2]; 5 mM threonine)	aspartokinase activity of the hom6Δ mutant (aspartokinase [2]; threonine 1 or 5 mM)	activity of feedback-resistant aspartokinase (HOM3-R7) (aspartokinase [3])	FKBP12 interaction with wild-type aspartokinase [4]	FKBP12 interaction with feedback resistant aspartokinase (HOM3-R7) [5]	FKBP12-aspartokinase binding in the presence of FK506 [6]
C[C@@H](O)[C@H](N)C(=O)O [threonine, L-threonine]	increased	inhibited to comparable levels	completely feedback inhibited	inhibited	no inhibition	increased	not with feedback resistant aspartokinase	
C=CC[C@@H]1/C=C(\C)C[C@H](C)C[C@H](OC)[C@H]2O[C@@](O)(C(=O)C(=O)N3CCCC[C@H]3C(=O)O[C@H](/C(C)=C/[C@@H]3CC[C@@H](O)[C@H](OC)C3)[C@H](C)[C@@H](O)CC1=O)[C@H](C)C[C@@H]2OC (relative stereo) [FK506, [3S-[3R*[E(1S*,3S*,4S*)],4S*,5R*,8S*,9E,12R*,14R*,15S*,16R*,18S*,19S*,26aR*]]-5,6,8,11,12,13,14,15,16,17,18,19,24,25,26,26a-hexadecahydro-5,19-dihydroxy-3-[2-(4-hydroxy-3-methoxycyclohexyl)-1-methylethenyl]-14,16-dimethoxy-4,10,12,18-tetramethyl-8-(2-propenyl)-15,19-epoxy-3H-pyrido[2,1-c][1,4]oxaazacyclotricosine-1,7,20,21(4H,23H)-tetrone, reference compound]								nearly abolished
